Data as given in publication PMC4685510, “A Cell Biologist’s Field Guide to Aurora Kinase Inhibitors” (Frontiers in Oncology, 2015).
Like-named read-outs stand apart in the source and are kept apart here.

Tests used:
Experiment in all cases: biochemical
Type in all cases: biochemical
[1] = biological target: 363 human kinases (including Aurora A/B/C) (Homo sapiens, UniProt Q00534); conditions: for remaining activity at 0.1 µM: 100 nM; for remaining activity at 0.1 µM / remaining activity at 0.5 µM: read-out: % Enzyme Activity (relative to DMSO controls); for remaining activity at 0.5 µM / % Enzyme Activity (relative to DMSO controls): 500 nM
Description: (§1) However, the Aurora A/B selectivity ratios derived from our in vitro and in vivo data can be compared to prioritize inhibitors.

[2] = biological target: 363 human kinases (including Aurora A/B/C) (Homo sapiens, UniProt Q9H422); conditions: HIPK3; for remaining activity at 0.1 µM: 100 nM; for remaining activity at 0.1 µM / remaining activity at 0.5 µM: read-out: % Enzyme Activity (relative to DMSO controls)
Description: as §1

[3] = biological target: 363 human kinases (including Aurora A/B/C) (Homo sapiens, UniProt P32298); conditions: GRK4; for remaining activity at 0.1 µM: 100 nM; for remaining activity at 0.1 µM / remaining activity at 0.5 µM: read-out: % Enzyme Activity (relative to DMSO controls)
Description: as §1

[4] = biological target: T1, 363 human kinases (including Aurora A/B/C) (Homo sapiens, UniProt P35626); conditions: GRK3; for remaining activity at 0.1 µM: 100 nM; for remaining activity at 0.1 µM / remaining activity at 0.5 µM: read-out: % Enzyme Activity (relative to DMSO controls)
T1 sequence (P35626 1-688): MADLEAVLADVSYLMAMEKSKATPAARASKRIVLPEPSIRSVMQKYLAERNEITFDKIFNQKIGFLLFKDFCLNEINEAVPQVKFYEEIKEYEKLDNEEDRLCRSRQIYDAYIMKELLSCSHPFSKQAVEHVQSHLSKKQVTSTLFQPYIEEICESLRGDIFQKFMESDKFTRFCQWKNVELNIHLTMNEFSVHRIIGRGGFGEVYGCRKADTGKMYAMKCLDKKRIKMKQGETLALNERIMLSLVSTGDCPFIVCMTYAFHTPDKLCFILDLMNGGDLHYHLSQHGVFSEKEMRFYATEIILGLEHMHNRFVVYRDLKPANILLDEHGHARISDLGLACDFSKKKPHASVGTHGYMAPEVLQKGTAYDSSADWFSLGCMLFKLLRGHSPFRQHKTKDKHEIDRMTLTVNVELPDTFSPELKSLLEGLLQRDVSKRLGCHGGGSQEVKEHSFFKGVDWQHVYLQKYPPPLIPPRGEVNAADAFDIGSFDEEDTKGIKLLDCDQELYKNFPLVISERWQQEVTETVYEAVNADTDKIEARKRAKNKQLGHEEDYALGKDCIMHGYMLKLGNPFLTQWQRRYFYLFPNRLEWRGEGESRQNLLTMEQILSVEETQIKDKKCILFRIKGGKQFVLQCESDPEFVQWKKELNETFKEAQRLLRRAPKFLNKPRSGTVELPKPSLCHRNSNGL
Description: as §1

[5] = biological target: T2, 363 human kinases (including Aurora A/B/C) (Homo sapiens, UniProt Q9BXA7); conditions: STK22D/TSSK1; for remaining activity at 0.1 µM: 100 nM; for remaining activity at 0.1 µM / remaining activity at 0.5 µM: read-out: % Enzyme Activity (relative to DMSO controls)
T2 sequence (Q9BXA7 1-367): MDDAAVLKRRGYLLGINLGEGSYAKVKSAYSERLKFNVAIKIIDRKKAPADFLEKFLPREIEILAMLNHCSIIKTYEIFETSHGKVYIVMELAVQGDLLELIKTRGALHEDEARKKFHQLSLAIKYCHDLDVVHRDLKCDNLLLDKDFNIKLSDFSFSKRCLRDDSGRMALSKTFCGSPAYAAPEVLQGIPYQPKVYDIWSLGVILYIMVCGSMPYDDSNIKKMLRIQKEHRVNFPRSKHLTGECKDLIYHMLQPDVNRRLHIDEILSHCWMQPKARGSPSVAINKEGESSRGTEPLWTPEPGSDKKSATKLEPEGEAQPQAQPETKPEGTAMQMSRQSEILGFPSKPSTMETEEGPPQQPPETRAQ
Description: as §1

[6] = biological target: T3, 363 human kinases (including Aurora A/B/C) (Homo sapiens, UniProt Q8IWQ3); conditions: BRSK2, [ATP] 50 µM; for remaining activity at 0.1 µM: 100 nM; for remaining activity at 0.1 µM / remaining activity at 0.5 µM: read-out: % Enzyme Activity (relative to DMSO controls)
T3 sequence (Q8IWQ3 1-736): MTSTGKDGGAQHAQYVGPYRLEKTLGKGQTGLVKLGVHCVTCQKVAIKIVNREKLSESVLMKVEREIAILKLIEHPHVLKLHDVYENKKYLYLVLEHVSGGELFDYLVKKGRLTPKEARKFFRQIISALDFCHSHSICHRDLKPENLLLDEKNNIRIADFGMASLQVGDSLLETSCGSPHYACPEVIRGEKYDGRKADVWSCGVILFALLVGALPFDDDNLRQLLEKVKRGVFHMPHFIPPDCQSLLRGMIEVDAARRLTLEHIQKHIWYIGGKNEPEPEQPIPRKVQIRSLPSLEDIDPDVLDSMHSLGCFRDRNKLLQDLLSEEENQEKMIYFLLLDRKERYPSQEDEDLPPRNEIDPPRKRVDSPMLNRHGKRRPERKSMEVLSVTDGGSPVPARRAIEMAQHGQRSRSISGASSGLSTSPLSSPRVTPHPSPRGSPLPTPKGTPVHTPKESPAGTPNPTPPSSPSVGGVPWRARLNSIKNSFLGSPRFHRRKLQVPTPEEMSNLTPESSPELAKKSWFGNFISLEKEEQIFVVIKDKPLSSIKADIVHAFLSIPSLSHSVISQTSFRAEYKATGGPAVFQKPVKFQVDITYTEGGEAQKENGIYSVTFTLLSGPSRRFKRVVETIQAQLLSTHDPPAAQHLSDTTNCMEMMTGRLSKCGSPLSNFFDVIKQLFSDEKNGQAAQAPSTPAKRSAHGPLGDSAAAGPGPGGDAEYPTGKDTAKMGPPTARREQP
Description: as §1

[7] = biological target: 363 human kinases (including Aurora A/B/C) (Homo sapiens, UniProt P43250); conditions: GRK6; for remaining activity at 0.1 µM: 100 nM; for remaining activity at 0.1 µM / remaining activity at 0.5 µM: read-out: % Enzyme Activity (relative to DMSO controls)
363 human kinases (including Aurora A/B/C) (Homo sapiens, UniProt P43250), sequence (P43250 whole entry): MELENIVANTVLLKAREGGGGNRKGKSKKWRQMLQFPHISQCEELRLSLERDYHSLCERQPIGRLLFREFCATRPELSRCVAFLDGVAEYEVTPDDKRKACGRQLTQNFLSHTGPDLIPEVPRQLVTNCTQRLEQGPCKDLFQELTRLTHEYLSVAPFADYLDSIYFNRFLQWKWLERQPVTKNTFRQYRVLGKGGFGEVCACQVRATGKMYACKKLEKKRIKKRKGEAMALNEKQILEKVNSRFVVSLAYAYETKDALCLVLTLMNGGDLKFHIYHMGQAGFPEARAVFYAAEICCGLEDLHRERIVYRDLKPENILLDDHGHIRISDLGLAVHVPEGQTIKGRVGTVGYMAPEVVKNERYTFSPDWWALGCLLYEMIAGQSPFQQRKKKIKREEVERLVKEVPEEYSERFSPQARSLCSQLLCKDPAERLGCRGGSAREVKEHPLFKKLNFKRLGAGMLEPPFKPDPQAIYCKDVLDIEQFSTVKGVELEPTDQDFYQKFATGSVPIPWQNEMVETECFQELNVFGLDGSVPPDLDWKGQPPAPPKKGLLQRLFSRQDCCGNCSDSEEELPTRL
Description: as §1

363 human kinases (including Aurora A/B/C) (Homo sapiens, UniProt P32298), sequence (P32298 whole entry): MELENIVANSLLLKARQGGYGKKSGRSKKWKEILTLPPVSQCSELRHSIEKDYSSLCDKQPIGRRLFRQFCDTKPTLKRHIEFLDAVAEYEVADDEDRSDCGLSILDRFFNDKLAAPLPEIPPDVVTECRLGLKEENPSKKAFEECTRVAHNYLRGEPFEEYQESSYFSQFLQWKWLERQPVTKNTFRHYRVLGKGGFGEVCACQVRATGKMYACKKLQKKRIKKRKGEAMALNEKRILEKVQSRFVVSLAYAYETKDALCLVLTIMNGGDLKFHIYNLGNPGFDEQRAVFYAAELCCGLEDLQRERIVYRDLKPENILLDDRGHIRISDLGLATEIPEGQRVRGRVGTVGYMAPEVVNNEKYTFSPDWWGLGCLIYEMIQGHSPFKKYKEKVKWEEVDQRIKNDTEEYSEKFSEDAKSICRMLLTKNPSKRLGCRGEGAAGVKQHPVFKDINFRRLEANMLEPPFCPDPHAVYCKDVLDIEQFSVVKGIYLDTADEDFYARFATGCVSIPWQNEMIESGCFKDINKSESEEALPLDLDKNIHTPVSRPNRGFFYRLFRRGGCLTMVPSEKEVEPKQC
363 human kinases (including Aurora A/B/C) (Homo sapiens, UniProt Q00534), sequence (Q00534 whole entry): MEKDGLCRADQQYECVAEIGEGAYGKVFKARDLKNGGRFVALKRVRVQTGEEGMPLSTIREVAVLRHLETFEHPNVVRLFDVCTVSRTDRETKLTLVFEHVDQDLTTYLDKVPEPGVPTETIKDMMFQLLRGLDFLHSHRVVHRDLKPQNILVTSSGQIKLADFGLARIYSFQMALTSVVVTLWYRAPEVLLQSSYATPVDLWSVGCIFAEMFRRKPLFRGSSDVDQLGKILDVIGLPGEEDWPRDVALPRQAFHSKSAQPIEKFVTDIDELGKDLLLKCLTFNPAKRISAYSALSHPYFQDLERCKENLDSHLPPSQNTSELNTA
363 human kinases (including Aurora A/B/C) (Homo sapiens, UniProt Q9H422), sequence (Q9H422 whole entry): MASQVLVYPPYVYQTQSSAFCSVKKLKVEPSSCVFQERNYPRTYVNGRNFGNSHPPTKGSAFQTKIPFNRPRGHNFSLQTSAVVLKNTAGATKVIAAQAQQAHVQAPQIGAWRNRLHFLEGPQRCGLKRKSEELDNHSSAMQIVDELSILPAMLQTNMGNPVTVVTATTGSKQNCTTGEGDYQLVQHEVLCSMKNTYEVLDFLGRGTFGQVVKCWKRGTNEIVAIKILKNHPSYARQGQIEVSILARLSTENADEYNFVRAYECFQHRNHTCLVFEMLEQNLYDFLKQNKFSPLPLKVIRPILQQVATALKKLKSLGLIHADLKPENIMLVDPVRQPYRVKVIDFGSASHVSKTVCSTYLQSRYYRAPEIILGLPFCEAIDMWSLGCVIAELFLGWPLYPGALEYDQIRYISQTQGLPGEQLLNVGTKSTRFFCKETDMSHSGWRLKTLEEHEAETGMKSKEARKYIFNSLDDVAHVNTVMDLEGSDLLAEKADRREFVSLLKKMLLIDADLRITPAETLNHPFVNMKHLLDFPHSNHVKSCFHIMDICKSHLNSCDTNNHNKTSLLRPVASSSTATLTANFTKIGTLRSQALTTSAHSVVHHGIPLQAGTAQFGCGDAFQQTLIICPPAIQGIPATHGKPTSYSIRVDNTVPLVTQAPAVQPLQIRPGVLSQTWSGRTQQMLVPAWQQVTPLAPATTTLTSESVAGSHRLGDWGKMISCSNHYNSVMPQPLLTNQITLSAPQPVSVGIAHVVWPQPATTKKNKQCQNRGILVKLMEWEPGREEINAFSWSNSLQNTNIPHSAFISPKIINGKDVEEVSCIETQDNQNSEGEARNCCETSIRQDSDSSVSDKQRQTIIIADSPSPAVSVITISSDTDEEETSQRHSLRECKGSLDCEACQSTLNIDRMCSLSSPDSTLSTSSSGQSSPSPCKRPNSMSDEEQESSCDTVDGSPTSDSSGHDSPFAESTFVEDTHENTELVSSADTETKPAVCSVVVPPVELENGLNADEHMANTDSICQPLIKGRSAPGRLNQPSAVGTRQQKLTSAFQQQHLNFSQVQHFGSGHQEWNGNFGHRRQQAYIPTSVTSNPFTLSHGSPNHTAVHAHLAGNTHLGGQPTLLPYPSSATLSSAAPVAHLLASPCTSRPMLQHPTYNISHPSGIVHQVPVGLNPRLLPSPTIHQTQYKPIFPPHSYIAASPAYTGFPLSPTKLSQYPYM

SMILES | remaining activity at 0.1 µM ([1]; CDK6/cyclin D1, [ATP] 20 µM) [%] | remaining activity at 0.1 µM ([1]; CDK6/cyclin D3, [ATP] 30 µM) [%] | remaining activity at 0.1 µM [2] [%] | remaining activity at 0.1 µM [3] [%] | remaining activity at 0.1 µM [4] [%] | remaining activity at 0.1 µM [5] [%] | remaining activity at 0.1 µM [6] [%] | remaining activity at 0.1 µM [7] [%] | remaining activity at 0.5 µM ([1]; CDK6/cyclin D1, [ATP] 20 µM) [%] | remaining activity at 0.5 µM ([1]; CDK6/cyclin D3, [ATP] 30 µM) [%] | remaining activity at 0.5 µM ([2]; 500 nM) [%] | remaining activity at 0.5 µM ([3]; 500 nM) [%] | remaining activity at 0.5 µM ([4]; 500 nM) [%] | remaining activity at 0.5 µM ([5]; 500 nM) [%] | remaining activity at 0.5 µM ([6]; 500 nM) [%] | remaining activity at 0.5 µM ([7]; 500 nM) [%] | also measured
CCn1cc(-c2ccnc3[nH]c(-c4cccc(CN(C)C)c4)cc23)c(-c2ccc(NC(=O)N(C)C)cc2)n1 [GSK1070916] | 98.8 | 102 | 106 | 95.2 | 98.2 | 90.1 | 88.4 | 106 | – | – | – | – | – | – | – | – | –
O=C(O)[C@]1(Cc2cccc(Nc3nccs3)n2)CC[C@@H](Oc2cccc(Cl)c2F)CC1 [MK-5108] | 90.3 | 89.7 | 97 | 96.7 | 101 | 106 | 92.7 | 104 | 96.2 | 95.1 | 70 | 92.9 | 101 | 94.4 | 78.7 | 101 | –
O=C(c1cccc(Cl)c1F)N1CCN(Cc2cccc(Nc3nccs3)n2)CC1 [MK-8745] | – | – | – | – | – | – | – | – | 96.4 | 95.7 | 105 | 94.8 | 101 | 93.6 | 109 | 100 | % Enzyme Activity (relative to DMSO controls) ([1]; CDK6/cyclin D1, [ATP] 20 µM): 94.81%; % Enzyme Activity (relative to DMSO controls) ([1]; CDK6/cyclin D3, [ATP] 30 µM): 93.71%; % Enzyme Activity (relative to DMSO controls) ([2]; 500 nM): 105.35%; % Enzyme Activity (relative to DMSO controls) ([3]; 500 nM): 94.47%; % Enzyme Activity (relative to DMSO controls) ([4]; 500 nM): 99.18%; % Enzyme Activity (relative to DMSO controls) ([5]; 500 nM): 93.43%; % Enzyme Activity (relative to DMSO controls) ([6]; 500 nM): 107.67%; % Enzyme Activity (relative to DMSO controls) ([7]; 500 nM): 98.74%
